From patent US20250163104A1, “MACROCYCLIC IMMUNOMODULATORS” (priority 2021, published 2025) come the findings set out here.

The assay has as its target T1, human PD-1 / PD-L1-Ig binding on Jurkat cell line over-expressing human PD-1 (Jurkat-PD-1) (Homo sapiens, UniProt Q15116).
T1 construct: expressed in transfected cells; host or cells: Jurkat
Kind of assay: Jurkat-PD-1 Cell Binding High-Content Screening Assay (CBA). Format: cell-based. The note with it: PE-labeled PD-L1-Ig 20 nM final. The method, boiled down:
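Cell-bound PE-labeled PD-L1-Ig (20 nM final, 1 h) measured by high-content imaging after fixation and Hoechst 33342 counterstain. Compound was applied first for 2 h at 37° C. to Jurkat cells over-expressing human PD-1 in DMEM with 10% FCS.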

Setting [1] is: Jurkat-PD-1 cells, read-out: Jurkat HPD1_PDL1 IC50.

Like-named read-outs stand apart in the source and are kept apart here. Where a SMILES comes first, the peptide text is derived from it. Bridges are numbered along the chain shown (N, C = ends). [ ]: non-standard residue; d: D form. The star is where a group is joined. ξ: configuration not given here. Bip(3'-COOH) = N[C@@H](Cc1ccc(-c2cccc(C(=O)O)c2)cc1)C(=O)O; Phe(4-COOH) = N[C@@H](Cc1ccc(C(=O)O)cc1)C(=O)O; Phe(2,4-Cl2) = N[C@@H](Cc1ccc(Cl)cc1Cl)C(=O)O; Bip = N[C@@H](Cc1ccc(-c2ccccc2)cc1)C(=O)O; Phe(3-Me) = Cc1cccc(C[C@H](N)C(=O)O)c1; NMehPhe = CN[C@@H](CCc1ccccc1)C(=O)O; ξW = NC(Cc1c[nH]c2ccccc12)C(=O)O; Cha = N[C@@H](CC1CCCCC1)C(=O)O; Cit = NC(=O)NCCC[C@H](N)C(=O)O; Carboxymethyl = O=C(O)C*; Orn = NCCC[C@H](N)C(=O)O; Dab = NCC[C@H](N)C(=O)O; Dap = NC[C@H](N)C(=O)O; Ac3c = NC1(C(=O)O)CC1; Propargyl = C#CC*

T1 sequence (Q15116 25-288): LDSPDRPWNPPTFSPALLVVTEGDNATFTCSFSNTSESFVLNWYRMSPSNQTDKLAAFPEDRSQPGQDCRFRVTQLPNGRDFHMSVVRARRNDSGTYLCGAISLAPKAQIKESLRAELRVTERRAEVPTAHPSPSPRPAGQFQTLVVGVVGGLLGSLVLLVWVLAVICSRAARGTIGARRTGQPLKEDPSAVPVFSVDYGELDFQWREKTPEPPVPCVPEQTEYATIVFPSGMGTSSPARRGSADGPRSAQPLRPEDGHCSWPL

What is called IC50 is the midpoint of a concentration-inhibition curve. On to `Cc1cccc(C[C@@H]2NC(=O)[C@H](CC(=O)O)NC(=O)[C@H](Cc3ccc(OCC(=O)O)cc3)NC(=O)[C@H](CN)NC(=O)CSC[C@@H](C(N)=O)NC(=O)[C@H](CCCN)NC(=O)[C@H](C(C)C)NC(=O)[C@H](CC3CCCCC3)NC(=O)[C@H](CCN)NC(=O)[C@@H](CC(C)C)NC(=O)[C@H](CCCN)NC(=O)[C@H](Cc3ccc(O)cc3)NC(=O)[C@H](Cc3ccc(-c4ccccc4)cc3)NC(=O)[C@H](C(C)C)NC2=O)c1` [Compound 2264] ({CH2CO}-[Dap]Y(Carboxymethyl)D[Phe(3-Me)]V[Bip]Y[Orn][dL][Dab][Cha]V[Orn]C-NH2; thioether N-14), for which, under setting [1], the IC50 amounted to 11.9 nM.

On to `CC(C)C[C@H]1NC(=O)[C@H](CCCN)NC(=O)[C@H](C(C)C)NC(=O)[C@H](Cc2ccc(-c3ccccc3)cc2)NC(=O)[C@H](C(C)C)NC(=O)[C@H](Cc2c[nH]c3ccccc23)NC(=O)[C@H](CC(=O)O)NC(=O)[C@H](Cc2ccc(C(=O)O)cc2)NC(=O)[C@H](Cc2ccc(OCC(=O)O)cc2)NC(=O)CSC[C@@H](C(=O)N[C@@H](C)C(N)=O)NC(=O)[C@H]([C@@H](C)O)NC(=O)[C@H](C(C)C)NC(=O)[C@H](Cc2cccc(F)c2)NC(=O)[C@H](CCN)NC1=O` [Compound 1673], for which the IC50 under setting [1] was found to be 13.6 nM.

Turning to `CCCC[C@H]1NC(=O)[C@H](CCCN)NC(=O)[C@H](CCC(=O)O)NC(=O)[C@H](Cc2ccc(-c3ccccc3)cc2)NC(=O)[C@H](C(C)C)NC(=O)[C@H](Cc2c[nH]c3ccccc23)NC(=O)[C@H](CC(=O)O)NC(=O)[C@H](Cc2ccc(C(=O)O)cc2)NC(=O)[C@H](Cc2ccc(OCC(=O)O)cc2)NC(=O)CSC[C@@H](C(=O)N[C@@H](C)C(N)=O)NC(=O)[C@H]([C@@H](C)O)NC(=O)[C@H](C(C)C)NC(=O)[C@H](CC2CCCCC2)NC(=O)[C@H](CCN)NC1=O` [Compound 1455], under setting [1], the half-inhibitory concentration (IC50) stood at 8.3 nM.

For `CC(C)C[C@H]1NC(=O)[C@H](CCCN)NC(=O)[C@H](CCCNC(N)=O)NC(=O)[C@H](Cc2ccc(-c3ccccc3)cc2)NC(=O)[C@H](C(C)C)NC(=O)[C@H](Cc2c[nH]c3ccccc23)NC(=O)[C@H](CC(=O)O)NC(=O)[C@H](Cc2ccc(C(=O)c3ccccc3)cc2)NC(=O)[C@H](CN)NC(=O)CSC[C@@H](C(=O)N[C@@H](C)C(N)=O)NC(=O)[C@H]([C@@H](C)O)NC(=O)[C@H](C(C)C)NC(=O)[C@H](CC2CCCCC2)NC(=O)[C@H](CCN)NC1=O` [Compound 2132], the 50% inhibitory concentration (IC50) under setting [1] came out at 65.2 nM.

Consider `CC(C)C[C@H]1NC(=O)[C@H](CCCN)NC(=O)[C@H](CCC(=O)O)NC(=O)[C@H](Cc2ccc(-c3ccccc3)cc2)NC(=O)[C@H](C(C)C)NC(=O)[C@H](Cc2c[nH]c3ccccc23)NC(=O)[C@H](CC(=O)O)NC(=O)[C@H](Cc2ccc(-c3cccc(C(=O)O)c3)cc2)NC(=O)[C@H](CC(N)=O)NC(=O)CSC[C@@H](C(=O)N[C@@H](C)C(N)=O)NC(=O)[C@H]([C@@H](C)O)NC(=O)[C@H](C(C)C)NC(=O)[C@H](CC2CCCCC2)NC(=O)[C@H](CCN)NC1=O` [Compound 2160] ({CH2CO}-N[Bip(3'-COOH)]DWV[Bip]E[Orn][dL][Dab][Cha]VTCA-NH2; thioether N-14), for which the IC50 under setting [1] was determined as 14.3 nM.

For the compound `CC(C)C[C@H]1NC(=O)[C@H](CCCN)NC(=O)[C@H](CCCNC(N)=O)NC(=O)[C@H](Cc2ccc(-c3ccccc3)cc2)NC(=O)[C@H](CC2CCCCC2)NC(=O)[C@H](Cc2c[nH]c3ccccc23)NC(=O)[C@H](CC(=O)O)NC(=O)[C@H](Cc2ccc(OCC(=O)O)cc2)NC(=O)[C@H](CN)NC(=O)CSC[C@@H](C(=O)N[C@@H](C)C(N)=O)NC(=O)[C@H]([C@@H](C)O)NC(=O)[C@H](C(C)C)NC(=O)[C@H](CC2CCCCC2)NC(=O)[C@H](CCN)NC1=O` [Compound 1361] ({CH2CO}-[Dap]Y(Carboxymethyl)DW[Cha][Bip][Cit][Orn][dL][Dab][Cha]VTCA-NH2; thioether N-14), the 50% inhibitory concentration (IC50) under setting [1] was found to be 14.9 nM.

Regarding `CC(C)C[C@H]1NC(=O)[C@H](CCCN)NC(=O)[C@H](C(C)C)NC(=O)[C@H](Cc2ccc(-c3ccccc3)cc2)NC(=O)[C@H](C(C)C)NC(=O)[C@H](Cc2c[nH]c3ccccc23)NC(=O)[C@H](CC(=O)O)NC(=O)[C@H](Cc2ccc(OCC(=O)O)cc2)NC(=O)[C@H](CCc2ccccc2)N(C)C(=O)CSC[C@@H](C(=O)N[C@@H](C)C(N)=O)NC(=O)[C@H](CO)NC(=O)[C@H](C(C)C)NC(=O)[C@H](CC2CCCCC2)NC(=O)[C@H](CCN)NC1=O` [Compound 2516] ({CH2CO}-[NMehPhe]Y(Carboxymethyl)DWV[Bip]V[Orn][dL][Dab][Cha]VSCA-NH2; thioether N-14), the IC50 under setting [1] turned out to be 10 nM.

Take `CC(C)C[C@@H]1NC(=O)[C@H](CCN)NC(=O)[C@@H](CC(C)C)NC(=O)[C@H](CCN)NC(=O)[C@H](CCC(=O)O)NC(=O)[C@H](Cc2ccc(-c3ccccc3)cc2)NC(=O)[C@H](C(C)C)NC(=O)[C@H](Cc2c[nH]c3ccccc23)NC(=O)[C@H](CC(=O)O)NC(=O)[C@H](Cc2ccc(OCC(=O)O)cc2)NC(=O)[C@H](Cc2ccc(OCC(=O)O)cc2)NC(=O)CSC[C@@H](C(=O)N[C@@H](C)C(N)=O)NC(=O)[C@H](CO)NC(=O)[C@H](C(C)C)NC1=O` [Compound 1268] ({CH2CO}-Y(Carboxymethyl)Y(Carboxymethyl)DWV[Bip]E[Dab][dL][Dab]LVSCA-NH2; thioether N-14): under setting [1], the IC50 worked out at 24.6 nM.

Turning to `CC(C)C[C@@H]1NC(=O)[C@H](Cc2c[nH]c3ccccc23)NC(=O)[C@H](CC(=O)O)NC(=O)[C@H](Cc2ccc(OCC(=O)O)cc2)NC(=O)[C@H](CN)NC(=O)CSC[C@@H](C(=O)NCC(N)=O)NC(=O)[C@H](CO)NC(=O)[C@H](C(C)C)NC(=O)[C@H](CC(C)C)NC(=O)[C@H](CC(N)=O)NC(=O)[C@@H](CC(C)C)NC(=O)[C@H](CN)NC(=O)[C@H](C(C)C)NC(=O)[C@H](Cc2ccc(-c3ccccc3)cc2)NC1=O` [Compound 1276] ({CH2CO}-[Dap]Y(Carboxymethyl)DWL[Bip]V[Dap][dL]NLVSCG-NH2; thioether N-14), the IC50 (Jurkat HPD1_PDL1 IC50, Jurkat-PD-1 cells) came out at 8.1 nM.

For the compound `CC[C@H](C)[C@@H]1NC(=O)[C@H](Cc2ccc(-c3ccccc3)cc2)NC(=O)[C@H](CC(C)C)NC(=O)C(Cc2c[nH]c3ccccc23)NC(=O)[C@H](CC(=O)O)NC(=O)[C@H](Cc2ccc(O)cc2)NC(=O)[C@H](Cc2ccccc2)NC(=O)CSC[C@@H](C(=O)N[C@@H](C)C(N)=O)NC(=O)[C@H](CO)NC(=O)[C@H](C(C)C)NC(=O)[C@H](CC(C)C)NC(=O)[C@H](CC(N)=O)NC(=O)[C@@H](CC(C)C)NC(=O)[C@H](CN)NC1=O` (stereo partly drawn) [Compound 1216] ({CH2CO}-FYD[ξW]L[Bip]I[Dap][dL]NLVSCA-NH2; thioether N-14), under setting [1], the half-maximal inhibitory concentration (IC50) amounted to 22.2 nM.

Regarding `CC(C)C[C@H]1NC(=O)[C@H](CCCN)NC(=O)[C@H](CCC(=O)O)NC(=O)[C@H](Cc2ccc(-c3ccccc3)cc2)NC(=O)[C@H](C(C)C)NC(=O)[C@H](Cc2c[nH]c3ccccc23)NC(=O)[C@H](CC(=O)O)NC(=O)[C@H](Cc2ccc(OCC(=O)O)cc2)NC(=O)[C@H](CN)NC(=O)CSC[C@@H](C(=O)N[C@@H](C)C(N)=O)NC(=O)[C@H]([C@@H](C)O)NC(=O)[C@H](C(C)C)NC(=O)[C@H](Cc2ccc(Cl)cc2Cl)NC(=O)[C@H](CCN)NC1=O` [Compound 1478] ({CH2CO}-[Dap]Y(Carboxymethyl)DWV[Bip]E[Orn][dL][Dab][Phe(2,4-Cl2)]VTCA-NH2; thioether N-14), under setting [1], the IC50 worked out at 120 nM.

Regarding `CC(C)C[C@H]1NC(=O)[C@H](CCCN)NC(=O)[C@H](CCC(=O)O)NC(=O)[C@H](Cc2ccc(-c3ccccc3)cc2)NC(=O)[C@H](C(C)C)NC(=O)[C@H](Cc2c[nH]c3ccccc23)NC(=O)[C@H](CC(=O)O)NC(=O)[C@H](Cc2ccc(OCC(=O)O)cc2)NC(=O)[C@H](CN)NC(=O)CSC[C@@H](C(=O)N[C@@H](C)C(N)=O)NC(=O)[C@H]([C@@H](C)O)NC(=O)[C@H](C(C)C)NC(=O)[C@H](Cc2ccc(O)cc2)NC(=O)[C@H](CCN)NC1=O` [Compound 1686] ({CH2CO}-[Dap]Y(Carboxymethyl)DWV[Bip]E[Orn][dL][Dab]YVTCA-NH2; thioether N-14), the concentration for half-maximal inhibition (IC50) under setting [1] worked out at 215 nM.

In the case of `C#CCOc1ccc(C[C@@H]2NC(=O)[C@H](Cc3cccc(C)c3)NC(=O)[C@H](CC(=O)O)NC(=O)[C@H](Cc3ccc(C(=O)O)cc3)NC(=O)[C@H](CN)NC(=O)CSC[C@@H](C(=O)N[C@@H](CCN)C(N)=O)NC(=O)[C@H]([C@@H](C)O)NC(=O)[C@H](C(C)C)NC(=O)[C@H](CC3CCCCC3)NC(=O)[C@H](CCN)NC(=O)[C@@H](CC(C)C)NC(=O)[C@H](CCCN)NC(=O)[C@H](C(C)C)NC(=O)[C@H](Cc3ccc(-c4ccccc4)cc3)NC2=O)cc1` [Compound 2022] ({CH2CO}-[Dap][Phe(4-COOH)]D[Phe(3-Me)]Y(Propargyl)[Bip]V[Orn][dL][Dab][Cha]VTC[Dab]-NH2; thioether N-14), the IC50 under setting [1] turned out to be 6.9 nM.

As to `CC(C)C[C@H]1NC(=O)[C@H](CCCN)NC(=O)[C@H](CCC(=O)O)NC(=O)[C@H](Cc2ccc(-c3ccccc3)cc2)NC(=O)[C@H](C(C)C)NC(=O)[C@H](Cc2cccc(Cl)c2)NC(=O)[C@H](CC(=O)O)NC(=O)[C@H](Cc2ccc(OCC(=O)O)cc2)NC(=O)[C@H](Cc2ccncc2)NC(=O)CSC[C@@H](C(=O)N[C@@H](C)C(N)=O)NC(=O)[C@H]([C@@H](C)O)NC(=O)[C@H](C(C)C)NC(=O)[C@H](CC2CCCCC2)NC(=O)[C@H](CCN)NC1=O` [Compound 1491], the IC50 under setting [1] was determined as 22.6 nM.

As for `Cc1cccc(C[C@@H]2NC(=O)[C@H](CC(=O)O)NC(=O)[C@H](Cc3ccc(OCC(=O)O)cc3)NC(=O)[C@H]([C@@H](C)O)NC(=O)CSC[C@@H](C(=O)NC3(C(N)=O)CC3)NC(=O)[C@H](CO)NC(=O)[C@H](C(C)C)NC(=O)[C@H](CC3CCCCC3)NC(=O)[C@H](CCN)NC(=O)[C@@H](CC(C)C)NC(=O)[C@H](CCCN)NC(=O)[C@H](Cc3ccc(OCC(=O)O)cc3)NC(=O)[C@H](Cc3ccc(-c4ccccc4)cc3)NC(=O)[C@H](Cc3ccc(OCC(=O)O)cc3)NC2=O)c1` [Compound 2065] ({CH2CO}-TY(Carboxymethyl)D[Phe(3-Me)]Y(Carboxymethyl)[Bip]Y(Carboxymethyl)[Orn][dL][Dab][Cha]VSC[Ac3c]-NH2; thioether N-14), under setting [1], the IC50 was 19.5 nM.
